From a compilation of properties of binary mixtures (doi:10.1016/j.molliq.2022.119209)

Test: xn = mol fraction of the nth substance listed
Conditions: 100 kPa

O + CC(N)C(=O)[O-].CCCC[n+]1ccn(C)c1C
x2 = 0
Conditions	viscosity [mPa·s]
288.15 K	1.17
293.15 K	1.03
303.15 K	0.82
308.15 K	0.74

O + N[C@@H]([C@H](O)C)C(=O)[O-].C(CCC)N1C(=[N+](C=C1)C)C
x2 = 0
Conditions	viscosity [mPa·s]
288.15 K	1.17
298.15 K	0.91
303.15 K	0.82
308.15 K	0.74
318.15 K	0.61

CCCCn1cc[n+](C)c1C.C[C@@H](O)[C@H](N)C(=O)[O-] + O
viscosity [mPa·s]
Conditions	x1 = 0.0998	x1 = 0.1919	x1 = 0.2985	x1 = 0.4004	x1 = 0.4927	x1 = 0.599	x1 = 0.7003	x1 = 0.8001	x1 = 0.9012	x1 = 1
288.15 K	57	84	141	228	–	470	650	880	1181	1472
293.15 K	40.4	61	–	164	236	331	–	600	780	960
298.15 K	28.7	44	73	115	164	231	–	–	510	610
303.15 K	18.1	28.7	47.4	74	105	145	191	245	310	363
308.15 K	15.6	–	40.6	–	89	–	159	–	245	285
313.15 K	9.8	15.8	–	40.6	57	–	100	122	145	167
318.15 K	8	13.1	–	–	–	62	–	–	107	125

O + CCCC[n+]1ccn(C)c1C.NCC(=O)[O-]
x2 = 0
Conditions	viscosity [mPa·s]
288.15 K	1.17
293.15 K	1.03
298.15 K	0.91
303.15 K	0.82
318.15 K	0.61

CC(N)C(=O)[O-].CCCC[n+]1ccn(C)c1C + O
viscosity [mPa·s]
Conditions	x1 = 0.1003	x1 = 0.2012	x1 = 0.3009	x1 = 0.4014	x1 = 0.4938	x1 = 0.5975	x1 = 0.6987	x1 = 0.7945	x1 = 0.8965	x1 = 1
288.15 K	28.4	52	86	127	168	215	270	336	429	520
293.15 K	–	40	64	95	126	161	–	244	307	–
298.15 K	17.1	30.5	48.9	72	96	123	151	183	226	268
303.15 K	12.8	23.3	36.8	54	72	92	113	136	165	192
308.15 K	10.6	19	30	44	58	75	92	110	131	150
313.15 K	8.1	14.7	23	33.5	44.2	57	–	82	97	110
318.15 K	6.7	12.1	–	27.5	36.3	46.7	57	67	77	–

CCCC[n+]1ccn(C)c1C.NCC(=O)[O-] + O
viscosity [mPa·s]
Conditions	x1 = 0.0999	x1 = 0.1982	x1 = 0.3003	x1 = 0.3904	x1 = 0.4786	x1 = 0.6	x1 = 0.6999	x1 = 0.798	x1 = 0.9001	x1 = 1
288.15 K	25.2	40.3	63	92	125	180	232	298	390	480
293.15 K	18.2	29.1	45.4	–	90	129	163	205	257	318
298.15 K	–	–	–	49.1	67	–	–	–	178	218
303.15 K	10.4	17.3	26.7	37.7	51	71	88	105	–	152
308.15 K	–	13.1	–	–	38.3	53	–	77	90	109
313.15 K	6.3	10.8	16.6	–	31.2	43.1	53	62	–	84
318.15 K	5.7	9.6	14.7	20.5	27.5	38.1	–	–	61	72
